# Test results taken from patent US20240293289A1, “Multifunctional Dental Adhesives and Uses Thereof” (University of Maryland, Baltimore, priority 2023, published 2024).
# Molecular target: MMP-9 (Homo sapiens, UniProt P14780)
# Assay: SENSOLYTE Generic MMP Assay Kit, MMP inhibition
# Type: biochemical
# Protocol: For the MMPs inhibition assay, SENSOLYTE Generic MMP Assay Kit Colorimetric was used. The MMP thiopeptide substrate solution was diluted to 0.2 mM with the supplied assay buffer in a 1:50 volume ratio. A 96-well plate was used for the assay using four replicates per group. In each well, 40 μL of MMP-9 (20 ng/well), 10 μL of CHX (1 mg/mL) at serial dilutions, and 50 μL of thiopeptide substrate solution were mixed. […] was measured using a plate reader (SpectraMax M5, Molecular Devices, Sunnyvale, CA, USA) at Ex/Em-490 nm/540 nm with a kinetic mode every 5 min for 60 min (20). The substrate control group was set as a background, where its absorbance was subtracted from other wells. The percentage of MMP inhibition was calculated according to equation 5: […]
# MMP-9, sequence (P14780 94-707): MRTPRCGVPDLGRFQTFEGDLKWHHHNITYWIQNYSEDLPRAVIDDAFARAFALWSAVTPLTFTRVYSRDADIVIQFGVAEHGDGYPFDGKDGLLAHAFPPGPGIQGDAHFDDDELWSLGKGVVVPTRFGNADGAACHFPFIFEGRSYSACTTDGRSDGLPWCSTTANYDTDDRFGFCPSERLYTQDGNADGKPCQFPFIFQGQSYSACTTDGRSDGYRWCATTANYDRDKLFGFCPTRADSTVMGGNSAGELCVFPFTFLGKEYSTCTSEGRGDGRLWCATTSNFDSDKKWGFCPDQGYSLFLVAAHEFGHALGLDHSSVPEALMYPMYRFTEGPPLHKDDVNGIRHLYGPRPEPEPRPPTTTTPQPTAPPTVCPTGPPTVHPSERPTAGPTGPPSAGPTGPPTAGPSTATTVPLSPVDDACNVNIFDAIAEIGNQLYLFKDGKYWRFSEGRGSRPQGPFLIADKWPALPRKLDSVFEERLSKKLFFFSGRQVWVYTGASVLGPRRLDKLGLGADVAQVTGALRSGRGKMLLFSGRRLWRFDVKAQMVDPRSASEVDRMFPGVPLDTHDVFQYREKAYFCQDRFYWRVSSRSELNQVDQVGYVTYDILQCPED
structure (smiles),measurement,setting,value
"[H]/N=C(\N/C(=N/[H])NCCCCCCNC(=N)NC(=N)Nc1ccc(Cl)cc1)Nc1ccc(Cl)cc1 [CHX, Chlorhexidine]",inhibition at 1000 µg/mL,1 mg/mL CHX,99.8%
same,inhibition of MMP-9,less than 1 mg/mL of CHX,substantial inhibition
